Patent publication US8236791B2, “Assays for S100 inhibitors” (Albert Einstein College of Medicine of Yeshiva University, priority 2005, dated 2012)

Assays:
[1] = target: T1, S100A4 (Homo sapiens, UniProt P26447); test: S100A4 biosensor (Mero-S100A4) fluorescence assay for S100A4 inhibitors; type: biochemical; details: screening assay: 5 μM S100A4 biosensor (dimer), 100 μM FDA approved drug, 0.3 mM CaCl2; controls: no addition 8475, calcium 14996, calcium + EGTA 6088
T1 construct: It is a chemical label, not a fused protein
T1 sequence (P26447 whole entry C3A/C76A/C86A, form open, the tested form may be a part): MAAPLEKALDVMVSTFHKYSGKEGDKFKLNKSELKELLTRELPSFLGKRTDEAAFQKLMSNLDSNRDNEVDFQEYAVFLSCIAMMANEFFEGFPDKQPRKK
Excerpt: We produced and characterized a fluorescent analog of S100A4 (Mero-S100A4) that reports calcium binding, and thus serves to identify activated S100A4 (Garrett et al., 2004). To produce the S100A4 biosensor that monitors protein activation (i.e., calcium binding) Cys81 was derivatized with the ISO-IAA dye to a stoichiometry of 1:1 (FIG. 2).
Binding of the Mero-S100A4 to myosin-IIA results in only a small increase in fluorescence intensity (FIG. 3, right panel). These observations indicate that the S100A4 biosensor reports only calcium binding and not target binding. In addition, calcium binding studies indicate that mutagenesis and dye attachment have not altered the binding affinity of the labeled S100A4 for calcium (data not shown).
A total of 333 FDA approved drugs were tested for their ability to inhibit S100A4, using the biosensor described in Example 1. Screening assays used 5 μM S100A4 biosensor (dimer concentration), 100 μM FDA approved drug, buffer: 50 mM Tris-HCl, pH 7.5, 150 mM NaCl, 0.3 mM CaCl2, 0.02% NaN3, 1 mM DTT, 10% DMSO. […] 100 μl assay volume.

[2] = target: T1, S100A4; test: as above; type: biochemical; details: 5 μM S100A4 biosensor, 0-400 μM small molecule inhibitor, 0.3 mM CaCl2 buffer

Structure (SMILES) | Arbitrary Fluorescence Units [1] | IC50 [2] [µM]
CC(C)COCC(CN(Cc1ccccc1)c1ccccc1)N1CCCC1 (stereo not drawn) [bepridil] | 6954 Arbitrary Fluorescence Units | 35
CN(C)CCCN1c2ccccc2CCc2ccc(Cl)cc21 [clomipramine] | 7898 Arbitrary Fluorescence Units | 133
OCCN1CCN(CC/C=C2/c3ccccc3Sc3ccc(C(F)(F)F)cc32)CC1 [flupenthixol-cis] | 6449 Arbitrary Fluorescence Units | 59
CN(C)C(=O)C(CCN1CCC(O)(c2ccc(Cl)cc2)CC1)(c1ccccc1)c1ccccc1 [loperamide] | 3820 Arbitrary Fluorescence Units | 18
CN1CCN(CCCN2c3ccccc3Sc3ccc(Cl)cc32)CC1 [prochlorperazine] | 5505 Arbitrary Fluorescence Units | 33
CN1CCN(CCCN2c3ccccc3Sc3ccc(C(F)(F)F)cc32)CC1 [trifluoperazine] | 7939 Arbitrary Fluorescence Units | 34

More lines, in order of falling IC50 [2], values ahead:

Arbitrary Fluorescence Units [1] | IC50 [2] [µM] | Structure (SMILES)
 | 256 | CN1CCC(=C2c3ccccc3C=Cc3ccccc32)CC1 [cyproheptadine]
7399 Arbitrary Fluorescence Units | 164 | OCCN1CCN(CCCN2c3ccccc3Sc3ccc(Cl)cc32)CC1 [perphenazine]
7977 Arbitrary Fluorescence Units | 145 | CN(C)CC/C=C1/c2ccccc2Sc2ccc(Cl)cc21 [chlorprothixene]
6908 Arbitrary Fluorescence Units | 46 | OCCN1CCN(CCCN2c3ccccc3Sc3ccc(C(F)(F)F)cc32)CC1 [fluphenazine]
7759 Arbitrary Fluorescence Units | 23 | CC(=O)N1CCN(c2ccc(OCC3COC(Cn4ccnc4)(c4ccc(Cl)cc4Cl)O3)cc2)CC1 (stereo not drawn) [ketoconazole]
